Laboratory results reported in ChEMBL document CHEMBL3769388, “Optimization of a Dicarboxylic Series for in Vivo Inhibition of Citrate Transport by the Solute Carrier 13 (SLC13) Family” (J Med Chem, 2016).

Key:
[1] = target: T1, Na(+)/citrate cotransporter (Homo sapiens, UniProt Q86YT5); test: Inhibition of NaCT (unknown origin) expressed in HEK293 cells assessed as inhibition of [14C]citrate uptake by microbeta plate reader analysis; format: cell-based
[2] = Renal clearance in Wistar Han rat at 1 mg/kg, iv by LC-MS/MS analysis; format: ADME, organism-based, Kidney; details: in vivo
[3] = Volume of distribution at steady state in Wistar Han rat at 1 mg/kg, iv by LC-MS/MS analysis; format: ADME, organism-based; details: in vivo, read-out: Vdss
[4] = Half life in Wistar Han rat at 1 mg/kg, iv by LC-MS/MS analysis; format: ADME, organism-based; details: in vivo
[5] = AUC(0 to t) in Wistar Han rat at 5 mg/kg, po by LC-MS/MS analysis; format: ADME, organism-based; details: in vivo
[6] = Fraction unbound in Wistar Han rat by equilibrium dialysis method; format: ADME
[7] = Total plasma clearance in Wistar Han rat at 1 mg/kg, iv by LC-MS/MS analysis; format: ADME, organism-based
[8] = target: T1, Na(+)/citrate cotransporter; test: Inhibition of NaCT in human hepatocytes assessed as [14C]-citrate uptake after 30 mins by scintillation counting method; format: cell-based, Hepatocyte
[9] = Passive permeability in MDCK cells; format: ADME, cell-based, Canis lupus familiaris; details: dog
[10] = target: T2, Solute carrier family 13 member 2 (Homo sapiens, UniProt Q13183); test: Inhibition of NaDC1 (unknown origin) expressed in HEK293 cells assessed as inhibition of [14C]citrate uptake by microbeta plate reader analysis; format: cell-based; details: read-out: IC50
T2 sequence (Q13183 whole entry): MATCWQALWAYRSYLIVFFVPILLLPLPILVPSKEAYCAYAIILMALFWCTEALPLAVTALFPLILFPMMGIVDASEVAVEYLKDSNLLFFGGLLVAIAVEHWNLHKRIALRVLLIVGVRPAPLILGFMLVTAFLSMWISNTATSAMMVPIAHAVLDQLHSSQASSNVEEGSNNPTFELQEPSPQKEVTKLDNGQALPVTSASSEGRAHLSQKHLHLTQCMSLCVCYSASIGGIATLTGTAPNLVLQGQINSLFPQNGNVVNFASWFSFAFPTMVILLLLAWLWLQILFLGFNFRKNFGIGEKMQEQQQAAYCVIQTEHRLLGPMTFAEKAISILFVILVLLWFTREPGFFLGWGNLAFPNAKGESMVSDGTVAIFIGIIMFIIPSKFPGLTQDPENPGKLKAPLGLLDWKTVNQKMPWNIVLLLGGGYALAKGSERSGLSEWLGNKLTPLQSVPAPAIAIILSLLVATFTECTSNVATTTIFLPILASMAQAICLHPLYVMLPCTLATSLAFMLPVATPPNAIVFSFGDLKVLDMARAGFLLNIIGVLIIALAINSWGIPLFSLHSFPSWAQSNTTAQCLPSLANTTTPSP

[11] = Clearance in human hepatocytes assessed per 10^6 cells; format: ADME, cell-based, Hepatocyte; details: read-out: CLH

T1 sequence (Q86YT5 whole entry): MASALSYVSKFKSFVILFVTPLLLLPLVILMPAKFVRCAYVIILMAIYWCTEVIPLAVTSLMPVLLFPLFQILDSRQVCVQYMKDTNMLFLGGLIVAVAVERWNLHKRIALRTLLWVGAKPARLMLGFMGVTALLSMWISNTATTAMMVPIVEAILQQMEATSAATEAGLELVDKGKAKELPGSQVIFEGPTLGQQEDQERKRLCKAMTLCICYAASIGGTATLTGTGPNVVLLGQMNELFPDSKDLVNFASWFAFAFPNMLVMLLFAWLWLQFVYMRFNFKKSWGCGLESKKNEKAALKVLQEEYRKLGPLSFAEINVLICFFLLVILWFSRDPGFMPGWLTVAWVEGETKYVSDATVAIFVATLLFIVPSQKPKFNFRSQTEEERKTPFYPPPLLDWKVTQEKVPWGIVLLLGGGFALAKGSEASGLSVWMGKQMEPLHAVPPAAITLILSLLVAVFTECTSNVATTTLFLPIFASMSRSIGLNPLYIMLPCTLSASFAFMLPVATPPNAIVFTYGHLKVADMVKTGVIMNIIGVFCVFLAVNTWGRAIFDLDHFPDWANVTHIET

Compound | IC50 ([1]; read-out: IC50) | CL renal [2] | Vd [3] | half-life [4] | AUC(0-t) [5] | fraction unbound [6] | clearance [7] | other results
CC(C)Oc1ncccc1CCC(O)(CC(=O)O)C(=O)O (racemic) | 330 nM |  |  |  |  |  |  | 
CCOc1ncccc1CCC(O)(CC(=O)O)C(=O)O (racemic) | 110 nM |  |  |  |  |  |  | 
CCOc1ncccc1CC[C@@](O)(CC(=O)O)C(=O)O | 110 nM | 1.8 mL/min/kg | 0.13 L/kg | 0.9 h | 2650 ng·h/mL | 0.086 | 6.7 mL/min/kg | IC50 [8]: 330 nM
CC(C)(C)c1ccc(CCC(O)(CC(=O)O)C(=O)O)cc1 (racemic) |  | 1.9 mL/min/kg | 0.45 L/kg | 1.2 h | 1850 ng·h/mL | 0.073 | 8.5 mL/min/kg | 
COc1ncccc1CCC(O)(CC(=O)O)C(=O)O (racemic) | 3370 nM |  |  |  |  |  |  | 
CCOc1ncccc1CC[C@](O)(CC(=O)O)C(=O)O | > 25000 nM |  |  |  |  |  |  | IC50 [8]: > 30000 nM
CCOc1ncc(C)cc1CCC(O)(CC(=O)O)C(=O)O (racemic) | 190 nM |  |  |  |  |  |  | 
O=C(O)CC(O)(CCc1ccccc1)C(=O)O (racemic) | > 17000 nM |  |  |  |  |  |  | 

The next lines start with results.

IC50 ([1]; read-out: IC50) | CL renal [2] | Vd [3] | half-life [4] | AUC(0-t) [5] | fraction unbound [6] | clearance [7] | Compound | other results
> 18000 nM | 2.8 mL/min/kg | 0.2 L/kg | 1 h | 499 ng·h/mL | 0.058 | 9.9 mL/min/kg | COc1ncc(C)cc1CC[C@](O)(CC(=O)O)C(=O)O | 
 | 0.5 mL/min/kg | 0.24 L/kg | 1 h | 2570 ng·h/mL | 0.054 | 4.5 mL/min/kg | CC(C)(C)c1ccc(CC[C@@](O)(CC(=O)O)C(=O)O)cc1 | Papp [9]: 1 ×10⁻⁶ cm/s; IC50 [10]: > 100000 nM; hepatocyte CLint [11]: < 6 µL/min/1e6 cells
1650 nM |  |  |  |  |  |  | COc1ccc(C)cc1CCC(O)(CC(=O)O)C(=O)O (racemic) | 
650 nM |  |  |  |  |  |  | COc1ncc(C)cc1CCC(O)(CC(=O)O)C(=O)O (racemic) | IC50 ([1]; read-out: pIC50 (converted)): 316 nM
